# According to patent US8030354B2, “Substituted biphenyl GPR40 modulators” (Amgen Inc., priority 2007, dated 2011):
# Columns and labels:
# GPR40 [1] = biological target: T1, GPR40 (Homo sapiens, UniProt O14842); test: Cell-based aequorin assay (CHO cells stably expressing GPR40 and aequorin); set-up: expressed in transfected cells; host or cells: CHO cells stably transfected with GPR40 and aequorin; conditions: activation of human GPR40, CHO cells, 0.01% HSA
# How it was run: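 CHO cells stably co-expressing GPR40 and aequorin, loaded with coelenterazine (1 ug/mL, 2 h, room temperature) in H/HBSS with 20 mM Hepes and 0.01% fatty acid-free HSA. Serially diluted compounds added; luminescence recorded over 20 s. EC50 from dose-response of maximum relative light units.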
# GPR40 [2] = biological target: T1, GPR40; test: Inositol phosphate accumulation assay (A9_GPR40 cells); type: cell-based; set-up: expressed in transfected cells; host or cells: CHO cells stably transfected with GPR40 and aequorin; conditions: inositol phosphate assay, A9_GPR40 cells, 1 hour; read-out: IP3 EC50
# How it was run: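 [^3H] inositol phosphate accumulation was measured by SPA after 1 h compound exposure at 37° C in HBSS/10 mM LiCl containing HSA, ending with a 20 mM formic acid quench. The GPR40-transfected A9 cells had first been labelled overnight (16 h) with 1 μCi/mL ^3H-inositol.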
# T1 sequence (O14842 whole entry): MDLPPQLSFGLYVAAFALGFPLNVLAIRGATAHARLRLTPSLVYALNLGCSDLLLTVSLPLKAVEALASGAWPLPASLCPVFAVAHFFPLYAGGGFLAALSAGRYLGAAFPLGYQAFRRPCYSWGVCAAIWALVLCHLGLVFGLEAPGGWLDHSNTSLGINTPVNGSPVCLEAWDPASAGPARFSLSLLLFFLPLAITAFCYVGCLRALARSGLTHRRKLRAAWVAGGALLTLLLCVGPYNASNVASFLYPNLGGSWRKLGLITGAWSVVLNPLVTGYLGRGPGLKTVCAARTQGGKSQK
EC50 (GPR40 [1]) [nM],EC50 (GPR40 [2]) [nM],Structure (SMILES)
100 to 1000,< 10,"COc1ccc(F)c(-c2ccc(COc3cccc(C(CC(=O)O)C4CC4)c3F)cc2CC(C)(C)C)c1 (single isomer, unassigned) [Example 83.15, (3S)-3-Cyclopropyl-3-(3-(((2-(2,2-dimethylpropyl)-2′-fluoro-5′-(methyloxy)-1,1′-biphenyl-4-yl)methyl)oxy)-2-fluorophenyl)propanoic acid or (3R)-3-cyclopropyl-3-(3-(((2-(2,2-dimethylpropyl)-2′-fluoro-5′-(methyloxy)-1,1′-biphenyl-4-yl)methyl)oxy)-2-fluorophenyl)propanoic acid]"
100 to 1000,10 to 100,"COCC(C)(C)C(OC)c1cc(COc2cccc(C(CC(=O)O)C3CC3)c2)ccc1-c1cc(OC)ccc1F (single isomer, unassigned) [Example 66.42, (S)-3-Cyclopropyl-3-{3-[2-(1,3-dimethoxy-2,2-dimethyl-propyl)-2′-fluoro-5′-methoxy-biphenyl-4-ylmethoxy]-phenyl}-propionic acid or (S)-3-Cyclopropyl-3-{3-[2-(1,3-dimethoxy-2,2-dimethyl-propyl)-2′-fluoro-5′-methoxy-biphenyl-4-ylmethoxy]-phenyl}-propionic acid]"
100 to 1000,< 10,"COc1ccc(F)c(-c2ccc(COc3cccc(C(CC(=O)O)C4CC4)c3F)cc2C2CCCCC2(C)C)c1 (single isomer, unassigned) [Example 83.7]"
100 to 1000,< 10,"CCC(CC(=O)O)c1cc(F)cc(OCc2ccc(-c3cc(OC)ncc3F)c(C3CCCC3(C)C)c2)c1 (single isomer, unassigned) [Example 88.4]"
100 to 1000,< 10,"CCC(CC(=O)O)c1cccc(OCc2cc(C3CCCC3(C)C)c(-c3cc(OC)ccc3F)cc2F)c1 (single isomer, unassigned) [Example 78.10]"
100 to 1000,100 to 1000,"COc1ccc(F)c(-c2ccc(COc3cccc([C@@H](CC(=O)O)CC4CC4)c3)cc2C(O)C(C)(C)C)c1 (single isomer, unassigned) [Example 69.14, (3R)-4-Cyclopropyl-3-(3-(((2′-fluoro-2-(1-hydroxy-2,2-dimethylpropyl)-5′-(methyloxy)-1,1′-biphenyl-4-yl)methyl)oxy)phenyl)butanoic acid or (3S)-4-cyclopropyl-3-(3-(((2′-fluoro-2-(1-hydroxy-2,2-dimethylpropyl)-5′-(methyloxy)-1,1′-biphenyl-4-yl)methyl)oxy)phenyl)butanoic acid]"
10 to 100,< 10,"COc1ccc(F)c(-c2ccc(COc3cccc(C(CC(=O)O)C4CC4)c3)cc2C(C)C(C)(C)C)c1 (single isomer, unassigned) [Example 66.19]"
100 to 1000,10 to 100,"COc1ccc(F)c(-c2ccc(COc3cccc([C@@H](CC(=O)O)C4CC4)c3)cc2C2N(C)CCCC2(C)C)c1 (single isomer, unassigned) [Example 66.40, (S)-3-Cyclopropyl-3-{3-[2′-fluoro-5′-methoxy-2-(1,3,3-trimethyl-piperidin-2-yl)-biphenyl-4-ylmethoxy]-phenyl}-propionic acid or (R)-3-cyclopropyl-3-{3-[2′-fluoro-5′-methoxy-2-(1,3,3-trimethyl-piperidin-2-yl)-biphenyl-4-ylmethoxy]-phenyl}-propionic acid]"
100 to 1000,10 to 100,"CC[C@H](CC(=O)O)c1cccc(OCc2ccc(-c3cc(Cl)ccc3F)c(C3=CCCC3(C)C)c2)c1 (single isomer, unassigned) [Example 78.9, (3R)-3-(3-(((5′-Chloro-2-(5,5-dimethyl-cyclopenten-1-yl)-2′-fluoro-1,1′-biphenyl-4-yl)methyl)oxy)phenyl)pentanoic acid or (3S)-3-(3-(((5′-chloro-2-(5,5-dimethyl-1-cyclopenten-1-yl)-2′-fluoro-1,1′-biphenyl-4-yl)methyl)oxy)phenyl)pentanoic acid]"

# More lines, now with the values behind:
Structure (SMILES),EC50 (GPR40 [1]) [nM],EC50 (GPR40 [2]) [nM]
"COc1ccc(F)c(-c2cc(F)c(COc3cccc([C@@H](CC(=O)O)C4CC4)c3F)cc2[C@H]2CCCC2(C)C)c1 (single isomer, unassigned) [Example 83.2]",10 to 100,< 10
"CCCC(CC(=O)O)c1cccc(OCc2ccc(-c3cc(OC)ccc3F)c(C3CCCCCC3)c2)c1 (single isomer, unassigned) [Example 67.7, (3R)-3-(3-(((2-Cycloheptyl-2′-fluoro-5′-(methyloxy)-1,1′-biphenyl-4-yl)methyl)oxy)phenyl)hexanoic acid or (3S)-3-(3-(((2-cycloheptyl-2′-fluoro-5′-(methyloxy)-1,1′-biphenyl-4-yl)methyl)oxy)phenyl)hexanoic acid]",100 to 1000,10 to 100
"COc1ccc(F)c(-c2ccc(COc3cccc(C(CC(=O)O)CC4CC4)c3)cc2N2CCCCC2)c1 (single isomer, unassigned) [Example 69.28, (3R)-4-Cyclopropyl-3-(3-(((2′-fluoro-5′-(methyloxy)-2-(1-piperidinyl)-1,1′-biphenyl-4-yl)methyl)oxy)phenyl)butanoic acid or (3S)-4-cyclopropyl-3-(3-(((2′-fluoro-5′-(methyloxy)-2-(1-piperidinyl)-1,1′-biphenyl-4-yl)methyl)oxy)phenyl)butanoic acid]",100 to 1000,10 to 100
"CCC[C@H](CC(=O)O)c1cccc(OCc2cc(C3=CCCC3(C)C)c(-c3cc(OC)ccc3F)cc2F)c1 (single isomer, unassigned) [Example 67.21]",100 to 1000,10 to 100
"COc1ccc(F)c(-c2ccc(COc3cccc(C(CC(=O)O)C4CC4)c3F)cc2C2CCCC2(C)C)c1 (single isomer, unassigned) [Example 99.2]",100 to 1000,10 to 100
"COc1ccc(F)c(-c2ccc(COc3cccc([C@@H](CC(=O)O)C4CC4)c3)cc2[C@H](F)C(C)(C)C)c1 (single isomer, unassigned) [Example 66.31]",100 to 1000,10 to 100
"COc1ccc(F)c(-c2ccc(COc3cccc([C@H](C)CC(=O)O)c3)cc2C2=CCCC2(C)C)c1 (single isomer, unassigned) [Example 55, (3R)-3-(3-(((2-(5,5-Dimethyl-1-cyclopenten-1-yl)-2′-fluoro-5′-(methyloxy)-1,1′-biphenyl-4-yl)methyl)oxy)phenyl)butanoic acid or (3S)-3-(3-(((2-(5,5-dimethyl-1-cyclopenten-1-yl)-2′-fluoro-5′-(methyloxy)-1,1′-biphenyl-4-yl)methyl)oxy)phenyl)butanoic acid]",100 to 1000,10 to 100
"COc1cccc(-c2ccc(COc3cccc(C(C)CC(=O)O)c3)cc2C2=CCCC2(C)C)c1 (single isomer, unassigned) [Example 64.20, (3R)-3-(3-(((2-(5,5-Dimethyl-1-cyclopenten-1-yl)-3′-(methyloxy)-1,1′-biphenyl-4-yl)methyl)oxy)phenyl)butanoic acid or (3S)-3-(3-(((2-(5,5-dimethyl-1-cyclopenten-1-yl)-3′-(methyloxy)-1,1′-biphenyl-4-yl)methyl)oxy)phenyl)butanoic acid]",100 to 1000,10 to 100
